Consider 27 compounds from patent publication US8163779B2, “Glucokinase activators” (Takeda San Diego, Inc., priority 2006, dated 2012).

This test addresses T1, glucokinase (GK) (Homo sapiens, UniProt P35557).
T1 construct: I.D. No. 1 corresponds to residues 12-465 of glucokinase; made in house; host or cells: E. coli DH10b-T1r
T1 sequence (P35557 with tags, fused parts or gaps isoform P35557-2): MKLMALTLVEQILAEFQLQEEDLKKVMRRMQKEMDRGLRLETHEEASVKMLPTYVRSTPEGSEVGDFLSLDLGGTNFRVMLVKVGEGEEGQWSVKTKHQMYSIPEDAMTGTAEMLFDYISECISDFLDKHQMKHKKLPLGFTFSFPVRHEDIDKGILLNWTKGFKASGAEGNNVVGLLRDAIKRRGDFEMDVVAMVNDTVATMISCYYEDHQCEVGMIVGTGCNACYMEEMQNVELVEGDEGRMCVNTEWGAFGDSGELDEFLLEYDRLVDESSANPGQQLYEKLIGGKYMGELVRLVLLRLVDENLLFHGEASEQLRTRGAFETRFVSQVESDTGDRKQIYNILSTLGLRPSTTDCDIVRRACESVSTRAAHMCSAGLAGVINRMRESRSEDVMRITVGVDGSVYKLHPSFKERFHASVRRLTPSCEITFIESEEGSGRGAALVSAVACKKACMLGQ
The experiment in a line: enzymatic glucokinase activity assay (ATP consumption, KinaseGlo luminescence). The format is biochemical. The following applies: recombinant GK residues 12-465; 5 μM ATP, 5 mM Glucose; Kact = concentration that displays 50% of the maximal increase in GK activity; read-out: pKact. The method, boiled down: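 Activation was scored as ATP consumption, quantified by KinaseGlo luciferase luminescence after a 60 min room-temperature reaction. Reactions contained E. coli-expressed, purified GK, 5 μM ATP, 5 mM glucose, 10 mM MgCl2, 0.01% Brij35 and 2% DMSO at pH 7.2; pKact was fitted non-linearly.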
In general terms: Kinase-Glo reads ATP consumption through a luciferase reaction.
On to `Cc1cc(-c2ccc(F)c(Cl)c2)cc(=O)n1[C@@H](CC1CCCCC1)C(=O)Nc1nccs1` [Example 106, (S)-2-(4-(3-chloro-4-fluorophenyl)-6-methyl-2-oxopyridin-1(2H)-yl)-3-cyclohexyl-N-(thiazol-2-yl)propanamide], for which the EC50 was over 15.8 µM.
Under `Cc1cc(-c2csc3ccccc23)cc(=O)n1[C@@H](CC1CCCCC1)C(=O)Nc1nccs1` [Example 107, (S)-2-(4-(benzo[b]thiophen-3-yl)-6-methyl-2-oxopyridin-1(2H)-yl)-3-cyclohexyl-N-(thiazol-2-yl)propanamide] stands over 15.8 µM.
As to `Cc1cc(-c2cc3ccccc3s2)cc(=O)n1[C@@H](CC1CCCCC1)C(=O)Nc1nccs1` [Example 108, (S)-2-(4-(benzo[b]thiophen-2-yl)-6-methyl-2-oxopyridin-1(2H)-yl)-3-cyclohexyl-N-(thiazol-2-yl)propanamide], the EC50 was over 15.8 µM.
The same measure for `Cc1cc(-c2cccc(F)c2)cc(=O)n1[C@@H](CC1CCCCC1)C(=O)Nc1nccs1` [Example 109, (S)-3-cyclohexyl-2-(4-(3-fluorophenyl)-6-methyl-2-oxopyridin-1(2H)-yl)-N-(thiazol-2-yl)propanamide]: over 15.8 µM; for `Cc1cc(-c2ccccc2F)cc(=O)n1[C@@H](CC1CCCCC1)C(=O)Nc1nccs1` [Example 110, (S)-3-cyclohexyl-2-(4-(2-fluorophenyl)-6-methyl-2-oxopyridin-1(2H)-yl)-N-(thiazol-2-yl)propanamide]: over 15.8 µM; for `Cc1csc(-c2cc(C)n([C@@H](CC3CCCCC3)C(=O)Nc3nccs3)c(=O)c2)c1` [Example 111, (S)-3-cyclohexyl-2-(6-methyl-4-(4-methylthiophen-2-yl)-2-oxopyridin-1(2H)-yl)-N-(thiazol-2-yl)propanamide]: over 15.8 µM.
Under `Cc1cc(-c2cccc(NS(C)(=O)=O)c2)cc(=O)n1[C@@H](CC1CCCCC1)C(=O)Nc1nccs1` [Example 112, (S)-3-cyclohexyl-2-(6-methyl-4-(3-(methylsulfonamido)phenyl)-2-oxopyridin-1(2H)-yl)-N-(thiazol-2-yl)propanamide] stands over 15.8 µM; under `Cc1cc(-c2cn[nH]c2)cc(=O)n1[C@@H](CC1CCCCC1)C(=O)Nc1nccs1` [Example 113, (S)-3-cyclohexyl-2-(6-methyl-2-oxo-4-(1H-pyrazol-4-yl)pyridin-1(2H)-yl)-N-(thiazol-2-yl)propanamide], over 15.8 µM.
In the case of `CNS(=O)(=O)c1cccc(-c2cc(C)n([C@@H](CC3CCCCC3)C(=O)Nc3nccs3)c(=O)c2)c1` [Example 114, (S)-3-cyclohexyl-2-(6-methyl-4-(3-(N-methylsulfamoyl)phenyl)-2-oxopyridin-1(2H)-yl)-N-(thiazol-2-yl)propanamide], the EC50 lay in the range of 1.58 to 15.8 µM.
The same measure for `CNS(=O)(=O)c1ccc(-c2cc(C)n([C@@H](CC3CCCCC3)C(=O)Nc3nccs3)c(=O)c2)cc1` [Example 115, (S)-3-cyclohexyl-2-(6-methyl-4-(4-(N-methylsulfamoyl)phenyl)-2-oxopyridin-1(2H)-yl)-N-(thiazol-2-yl)propanamide]: over 15.8 µM; for `CC(C)(O)c1cnc(NC(=O)C(CC2CCOCC2)n2ccc(S(=O)(=O)C3CC3)cc2=O)s1` (stereo not drawn) [Example 117, 2-(4-(cyclopropylsulfonyl)-2-oxopyridin-1(2H)-yl)-N-(5-(2-hydroxypropan-2-yl)thiazol-2-yl)-3-(tetrahydro-2H-pyran-4-yl)propanamide]: over 15.8 µM.
With `Cc1c(S(=O)(=O)C2CCCC2)c(C)c(=O)n(C(CC2CCOCC2)C(=O)Nc2ncc(Cl)s2)c1C` (stereo not drawn) [Example 118, N-(5-chlorothiazol-2-yl)-2-(4-(cyclopentylsulfonyl)-3,5,6-trimethyl-2-oxopyridin-1(2H)-yl)-3-(tetrahydro-2H-pyran-4-yl)propanamide], the EC50 is under 1.58 µM.
The same measure for `Cc1cc(S(=O)(=O)c2cc(Cl)sc2Cl)cc(=O)n1C(CC1CCOCC1)C(=O)Nc1ncc(Cl)s1` (stereo not drawn) [Example 119, N-(5-chlorothiazol-2-yl)-2-(4-(2,5-dichlorothiophen-3-ylsulfonyl)-6-methyl-2-oxopyridin-1(2H)-yl)-3-(tetrahydro-2H-pyran-4-yl)propanamide]: 1.58 to 15.8 µM; for `COCCC(C)(C)S(=O)(=O)c1ccn([C@H](CC2CCOCC2)C(=O)Nc2nc3ccc(OC)nc3s2)c(=O)c1` [Example 120, (R)-2-(4-(4-methoxy-2-methylbutan-2-ylsulfonyl)-2-oxopyridin-1(2H)-yl)-N-(5-methoxythiazolo[5,4-b]pyridin-2-yl)-3-(tetrahydro-2H-pyran-4-yl)propanamide]: over 15.8 µM; for `COCCC(C)(C)S(=O)(=O)c1ccn([C@@H](CC2CCOCC2)C(=O)Nc2nc3ccc(OC)nc3s2)c(=O)c1` [Example 121, (S)-2-(4-(4-methoxy-2-methylbutan-2-ylsulfonyl)-2-oxopyridin-1(2H)-yl)-N-(5-methoxythiazolo[5,4-b]pyridin-2-yl)-3-(tetrahydro-2H-pyran-4-yl)propanamide]: 1.58 to 15.8 µM.
Under `COc1ccc2nc(NC(=O)[C@@H](CC3CCCCC3)n3c(C)cc(S(=O)(=O)C4CC4)cc3=O)sc2n1` [Example 122, (R)-3-cyclohexyl-2-(4-(cyclopropylsulfonyl)-6-methyl-2-oxopyridin-1(2H)-yl)-N-(5-methoxythiazolo[5,4-b]pyridin-2-yl)propanamide] stands 1.58 to 15.8 µM.
Under `COc1ccc2nc(NC(=O)[C@H](CC3CCCCC3)n3c(C)cc(S(=O)(=O)C4CC4)cc3=O)sc2n1` [Example 123, (S)-3-cyclohexyl-2-(4-(cyclopropylsulfonyl)-6-methyl-2-oxopyridin-1(2H)-yl)-N-(5-methoxythiazolo[5,4-b]pyridin-2-yl)propanamide] stands under 1.58 µM; under `O=C(Nc1ncc(Cl)s1)C(CC1CCCCC1)n1cc(Cl)c2sccc2c1=O` (stereo not drawn) [Example 124, 2-(7-chloro-4-oxothieno[3,2-c]pyridin-5(4H)-yl)-N-(5-chlorothiazol-2-yl)-3-cyclohexylpropanamide], over 15.8 µM; under `COc1ccc2nc(NC(=O)C(CC3CCOCC3)n3ccc(N4CC[C@H](O)C4)cc3=O)sc2n1` (stereo partly drawn) [Example 125, 2-(4-((S)-3-hydroxypyrrolidin-1-yl)-2-oxopyridin-1(2H)-yl)-N-(5-methoxythiazolo[5,4-b]pyridin-2-yl)-3-(tetrahydro-2H-pyran-4-yl)propanamide], over 15.8 µM.
Turning to `Cc1cc(-c2cccc(S(C)(=O)=O)c2)cc(=O)n1[C@@H](CC1CCCCC1)C(=O)Nc1nccs1` [Example 126, (S)-3-cyclohexyl-2-(6-methyl-4-(3-(methylsulfonyl)phenyl)-2-oxopyridin-1(2H)-yl)-N-(thiazol-2-yl)propanamide], the EC50 was over 15.8 µM.
Under `COc1ccc2nc(NC(=O)C(CC3CCOCC3)n3ccc(S(=O)(=O)C4CC4)cc3=O)sc2c1` (stereo not drawn) [Example 127, 2-(4-(cyclopropylsulfonyl)-2-oxopyridin-1(2H)-yl)-N-(6-methoxybenzo[d]thiazol-2-yl)-3-(tetrahydro-2H-pyran-4-yl)propanamide] stands 1.58 to 15.8 µM; under `CN(C)c1ccc2nc(NC(=O)C(CC3CCOCC3)n3ccc(S(=O)(=O)C4CC4)cc3=O)sc2n1` (stereo not drawn) [Example 128, 2-(4-(cyclopropylsulfonyl)-2-oxopyridin-1(2H)-yl)-N-(5-(dimethylamino)thiazolo[5,4-b]pyridin-2-yl)-3-(tetrahydro-2H-pyran-4-yl)propanamide], under 1.58 µM.
In the case of `O=C(Nc1ncc(Cl)s1)C(CC1CCCCC1)n1ccc(C(=O)N2CCCC2)cc1=O` (stereo not drawn) [Example 129, N-(5-chlorothiazol-2-yl)-3-cyclohexyl-2-(2-oxo-4-(pyrrolidine-1-carbonyl)pyridin-1(2H)-yl)propanamide], the EC50 was 1.58 to 15.8 µM.
Take `O=C(Nc1nc2ccc(Cl)cc2s1)C(CC1CCOCC1)n1ccc(S(=O)(=O)C2CC2)cc1=O` (stereo not drawn) [Example 130, N-(6-chlorobenzo[d]thiazol-2-yl)-2-(4-(cyclopropylsulfonyl)-2-oxopyridin-1(2H)-yl)-3-(tetrahydro-2H-pyran-4-yl)propanamide]: the EC50 lay within 1.58 to 15.8 µM.
The same measure for `O=C(Nc1nc2ccc(F)cc2s1)C(CC1CCOCC1)n1ccc(S(=O)(=O)C2CC2)cc1=O` (stereo not drawn) [Example 131, 2-(4-(cyclopropylsulfonyl)-2-oxopyridin-1(2H)-yl)-N-(6-fluorobenzo[d]thiazol-2-yl)-3-(tetrahydro-2H-pyran-4-yl)propanamide]: 1.58 to 15.8 µM; for `COC(C)(C)c1cnc(NC(=O)[C@@H](CC2CCOCC2)n2ccc(S(=O)(=O)C3CC3)cc2=O)s1` [Example 132, (R)-2-(4-(cyclopropylsulfonyl)-2-oxopyridin-1(2H)-yl)-N-(5-(2-methoxypropan-2-yl)thiazol-2-yl)-3-(tetrahydro-2H-pyran-4-yl)propanamide]: 1.58 to 15.8 µM.
The same measure for `COC(C)(C)c1cnc(NC(=O)[C@H](CC2CCOCC2)n2ccc(S(=O)(=O)C3CC3)cc2=O)s1` [Example 133, (S)-2-(4-(cyclopropylsulfonyl)-2-oxopyridin-1(2H)-yl)-N-(5-(2-methoxypropan-2-yl)thiazol-2-yl)-3-(tetrahydro-2H-pyran-4-yl)propanamide]: 1.58 to 15.8 µM.
